In patent US20230226018A1, “APPLICATION OF COMPOUND USING INTRA-CYCLIC PEROXO-BRIDGED SESQUITERPENES AS PARENT NUCLEUS IN METABOLISM-RELATED FATTY LIVER DISEASES” (SHANGHAI JIAO TONG UNIVERSITY, priority 2021, published 2023):

Experiments:
HepG2 liver cancer cells [1] = assay: Lipid accumulation (triglyceride content, Nile red lipid droplets) in FFA-treated HepG2 liver cancer cells; assay type: cell-based, human; settings: 1 mM/L FFA, 5 μM/L artesunate, 24 h, vs model group
HepG2 liver cancer cells [2] = assay: qRT-PCR expression of CIDE, AMPK pathway and PPAR pathway genes in FFA-treated HepG2 cells; assay type: cell-based, human; settings: 1 mM/L FFA, 5 μM/L artesunate, 24 h
Procedure: Experimental methods: HepG-2 liver cancer cells with passage times less than 20 times were selected and inoculated into a 12-well plate at a density of 3×10^5 cells/mL. Drug treatment was performed after inoculating for 24 h, and the cells were divided into 3 groups with 4 wells in each group. A complete medium containing 1% bovine serum albumin (BSA) was used as the control group. A complete medium containing 1% BSA and 1 mM/L FFA was used as the high-fat model group. A complete medium containing 1% BSA, 1 mM/L FFA, and 5 μM/L, artesunate was used as the artesunate group. After being treated for 24 h, the cells were collected, and RNA was extracted and reverse-transcribed into cDNA. Quantitative real-time PCR (qRT-PCR) was used to detect the expression of CIDE series genes. AMPK signaling pathway-related genes, and PPAR signaling pathway-related genes in the three groups of cells.

[3] = system: C57 mice fed with 10% lard and 5% fructose; assay: Liver pathology (HE, Oil red O staining, SAF scoring) in mice on high-fat and high-sugar diet; assay type: in vivo; settings: vs high-fat group
Procedure: (§1) C57 mice were selected and fed with feedstuffs that were added with 10% lard and 5% fructose. After 12 weeks, the mice suffered from liver metabolism disruption, generated insulin resistance, and were stuck in mitochondrial dysfunction in liver cells, thus resulting in a decrease in fatty acid β-oxidation capacity and fat accumulation in the liver, and inflammation and fibrosis were produced. Artemisinin was given at a dosage of 100 mg/kg from the 13th week as a treatment for 12 weeks. At the end of the experiment, the mice were dissected to obtain livers. A part of the livers was subjected to HE staining and Oli red O staining to quantify the liver lipids and conduct a pathological scoring of liver steatosis of the mice based on the steatosis activity fibrosis (SAF) scoring system.

[4] = system: C57 mice fed with 10% lard and 5% fructose; assay: Serum enzyme detection in mice on high-fat and high-sugar diet; assay type: in vivo; settings: artemisinin 100 mg/kg for 12 weeks, vs high-fat diet
Procedure: as §1, with “system. […] The serum of each group of mice mentioned above was taken and subjected to serum enzyme detection.” for “system.”

[5] = system: C57 mice fed with 10% lard and 5% fructose; assay: Expression of autophagy-related proteins (TOR, LC3) in liver of mice on high-fat and high-sugar diet; assay type: in vivo; settings: artemisinin 100 mg/kg for 12 weeks, FIGS. 11A-11G
Procedure: as §1
A part of the livers of the mice in each group mentioned above was taken, RNA and protein were extracted, and the study of the expression of related genes and proteins was conducted to detect the expression levels of lipid metabolism-related genes in liver tissue.
Target of rapamycin (TOR) is a key protein in the control of autophagy, which can sense various change signals of cells and strengthen or reduce the occurrence level of autophagy.

[6] = system: C57 mice fed with 10% lard and 5% fructose; assay: Expression of lipid metabolism-related genes in liver tissue of mice on high-fat and high-sugar diet; assay type: in vivo; settings: artemisinin 100 mg/kg for 12 weeks, FIGS. 10A-10I
Procedure: as §1, with “system. […] A part of the livers of the mice in each group mentioned above was taken, RNA and protein were extracted, and the study of the expression of related genes and proteins was conducted to detect the expression levels of lipid metabolism-related genes in liver tissue.” for “system.”

[7] = vs model group, p<0.001, FIG. 7

| SMILES | content of triglyceride (TG) in HepG2 liver cancer cells (HepG2 liver cancer cells [1]; FIG. 1) | number of large lipid droplets (Nile red staining) (HepG2 liver cancer cells [1]; FIGS. 2A-2B) | expression of SREBP1c-ACC/SCD1/FAS genes related to intracellular fatty acid synthesis (HepG2 liver cancer cells [2]; FIG. 5) | mRNA level of PPARct. (HepG2 liver cancer cells [2]; [7]) | mRNA level of PPARy (HepG2 liver cancer cells [2]; [7]) | mRNA level of AMPKα (PRKAA1) (HepG2 liver cancer cells [2]; vs model group, p<0.01, FIG. 4) | mRNA level of carnitine palmitoyl transferase 1 (CPT-1) (HepG2 liver cancer cells [2]; vs model group, p<0.01, FIG. 6) | mRNA expression of Cide-a gene (HepG2 liver cancer cells [2]; vs model group, FIG. 3) | mRNA expression of Cide-b gene (HepG2 liver cancer cells [2]; vs model group, FIG. 3) | score of lobular inflammation (SAF scoring system) ([3]; artemisinin 100 mg/kg for 12 weeks, FIG. 9C) | score of ballooning of liver cells (SAF scoring system) ([3]; artemisinin 100 mg/kg for 12 weeks, FIG. 9D) | liver steatosis (fat blebs, Oil red O staining areas) ([3]; artemisinin 100 mg/kg from the 13th week for 12 weeks, FIG. 8) | ALT level in the serum ([4]; FIG. 9E) | AST level in the serum ([4]; FIG. 9F) | mitochondrial dysfunction and autophagy (mitophagy) level in liver [5] | upstream gene expression levels of genes related to lipid synthesis in liver [6] |
| --- | --- | --- | --- | --- | --- | --- | --- | --- | --- | --- | --- | --- | --- | --- | --- | --- |
| C[C@H]1[C@H](OC(=O)CCC(=O)O)O[C@@H]2O[C@@]3(C)CC[C@H]4[C@H](C)CC[C@@H]1[C@@]24OO3 [artesunate] | significantly decreased | decreased | reduce the expression | significantly up-regulated | significantly up-regulated | significantly up-regulated | significantly up-regulated | significantly lower | significantly lower |  |  |  |  |  |  |  |
| C[C@@H]1CC[C@H]2[C@@H](C)C(=O)O[C@@H]3O[C@@]4(C)CC[C@@H]1[C@]32OO4 [artemisinin] |  |  |  |  |  |  |  |  |  | significantly reduced | significantly reduced | significantly improve liver steatosis | significantly reduce the elevation | significantly reduce the elevation | effectively resist the mitochondrial dysfunction and the decrease in the autophagy level | inhibited |
